Data set [1] in a line: Prodrug hydrolysis in rat plasma. The class given is in vitro ADME. The following applies: 37° C., depletion of starting material, read-out: Rat Plasma t1/2. As to the method: (§1) Reaction mixtures containing either mouse liver S9 (20.8 mg/mL), mouse plasma, rat liver S9 (1 mg/mL) and phosphate buffer (100 mM, pH 7.4), rat plasma, human liver S9 (1.0 mg/mL) and phosphate buffer (100 mM, pH 7.4) or human plasma were pre-incubated at 37° C. for 5 minutes. Reactions were then initiated by addition of compounds 4, 8 or 16 (1 mM in mouse, 0.5 mM in rat and human). […] The samples were analyzed by HPLC with UV detection and the resulting hydrolysis data can be seen in FIG. 12.
(§2) In all cases, the half-lives for compound 4 are shorter than that of compound 8. […] In all cases, the half-life indicates the depletion of starting material compounds. […] In human compartments, only carbonate cleavage is observed.

Data set [2] in a line: Prodrug hydrolysis in human plasma. It is filed as in vitro ADME. The settings on record: 37° C., depletion of starting material, read-out: Human Plasma t1/2. On the procedure:
as §1, §2

Data set [3] can be described thus: Prodrug hydrolysis in rat liver S9. The class given is in vitro ADME. The following applies: pH 7.4, rat liver S9 1 mg/mL, 37° C., depletion of starting material, read-out: Rat Liver t1/2. On the procedure:
as §1, §2

Data set [4] in a line: Prodrug hydrolysis in human liver S9. It is filed as in vitro ADME. The settings on record: pH 7.4, human liver S9 1.0 mg/mL, 37° C., depletion of starting material, read-out: Human Liver t1/2. As to the method: as §1, §2
Data set [5] is described as follows: Kinetic analysis of 5′-acyloxy/alkoxycarbonyl prodrug hydrolysis in human liver S9 (HPLC-UV). It is filed as in vitro ADME. The settings on record: for Km: both sexes, human, pooled human liver S9, pH 7.4, 17: 5′-acetoxy hydrolysis, 1.0 mg/mL S9, 5: 5′-pentoxycarbonyl hydrolysis, 3.0 mg/mL S9, 37° C.; for Km / Intrinsic Clearance / Vmax: conversion to compound 13; for Intrinsic Clearance / Vmax: 17: 1.0 mg/mL S9, 5: 3.0 mg/mL S9; for half-lives in human liver S9: FIG. 7. On the procedure:
A reaction mixture containing Tris buffer (30 mM, pH 7.4) and mixed pooled gender liver S9 (1 mg/mL, 3.0 mg/mL, or 4.0 mg/mL) are pre-incubated at 37° C. for 5 minutes. To the reaction mixtures is added compound 17 which initiates the hydrolysis reaction (concentrations of compound 17 ranging from 200 μM to 10 mM). […] The supernatant was diluted into Tris buffer (30 mM, pH 7.4) to yield samples with concentrations appropriate for analysis. The samples were analyzed by HPLC with UV detection using the following method (0% to 100% acetonitrile in Et3NHOAc (50 mM, pH 8) gradient) over 10 minutes at a flow rate of 3 mL min^−1, held at 100% acetonitrile for 3 minutes, ramped down to 5% acetonitrile over 0.2 minutes and then held for 2.8 minutes.
Kinetic analysis data for the conversion of compound 17 to compound 13 via 5′-acetoxy hydrolysis is illustrated in FIG. 5. The hydrolysis was performed under conditions in which the pentyl carbamate group of compound 17 is stable in 1.0 mg/mL pooled mixed gender human liver S9. It was observed that the intrinsic clearance for the 5′-acetoxy hydrolysis is greater than that for the carbamate group hydrolysis.
Kinetic analysis data for the conversion of compound 5 to compound 13 via 5′-pentoxycarbonyl hydrolysis is illustrated in FIG. 6 (concentrations of compound 5 ranging from 200 μM to 10 mM). The hydrolysis was performed under conditions in which the pentyl carbamate group is stable in 3.0 mg/mL pooled mixed gender human liver S9. It was observed that the intrinsic clearance for 5′-pentoxycarbonyl hydrolysis is greater than that for carbamate group hydrolysis but reduced when compared to the intrinsic clearance of the 5′-acetoxy hydrolysis. Kinetic analysis data for the conversion of compound 17 to compound 13 via 5′-acetoxy hydrolysis and the conversion of compound 5 to compound 13 via 5′-pentoxycarbonyl hydrolysis is presented in Table 1 below.
Kinetic analysis data for compounds 20 and 21 in human liver S9 was generated in accordance with the general procedure described above.

Data set [6] is described as follows: Half-life measurements in human plasma (HPLC-UV). The class given is in vitro ADME. The settings on record: human, plasma, 37° C., hydrolysis through two potential pathways, read-out: hydrolysis half-life in human plasma (converted). On the procedure:
To evaluate the hydrolysis rates of emtricitabine compounds 9-16, HPLC coupled with UV detection was used with the following method (0% to 100% acetonitrile in Et3NHOAc (50 mM, pH 8) gradient) over 10 minutes at a flow rate of 3 mL min^−1, held at 100% acetonitrile for 3 minutes, ramped down to 5% acetonitrile over 0.2 minutes and then held for 2.8 minutes. Male human plasma (Bioreclamation) or female human skeletal muscle S9 (7.96 mg/mL, Bioreclamation) was pre-incubated at 37° C. for 5 minutes. Compounds 9-16 (1 mM) were added and the reaction was incubated at 37° C. […] The supernatant was diluted 10 fold into Tris buffer (30 mM, pH 7.4) and injected onto the HPLC for analysis.
To evaluate the hydrolysis rates of emtricitabine trimethyl lock prodrugs, HPLC coupled with UV detection was used with the following method (0% to 100% acetonitrile in Et3NHOAc (50 mM, pH 8) gradient) over 10 minutes at a flow rate of 3 mL min^−1, held at 100% acetonitrile for 3 minutes, ramped down to 5% acetonitrile over 0.2 minutes and then held for 2.8 minutes. Human plasma (Bioreclamation) or human skeletal muscle S9 (7.96 mg/mL, Bioreclamation) was pre-incubated at 37° C. for 5 minutes. Emtricitabine trimethyl lock compound 25 (1 mM) was added and the reaction was incubated at 37° C. […] The supernatant was diluted in Tris buffer (100 mM, pH 7.4) and injected onto the HPLC for analysis. […]

The next data set deals with CD4+ T cells. Nature of the data set: Viability staining (Zombie Red) in single-round infectivity assay. On the procedure: Peripheral blood mononuclear cells were isolated from healthy blood donors using Hypaque-Ficoll gradient centrifugation. CD4+ T cells were selected by magnetic beads (Miltenyi) and activated using anti-CD3 and anti-CD28 antibodies. Activated cells were seeded onto a 96-well plate at a concentration of 1×10^5 cells/well in RPMI1640 supplemented with 10% FBS, cytokine-rich supernatant, and 50% heat-inactivated human serum. Test compounds were added at this step and maintained throughout the culture. Cells were incubated at 37° C. for 21 hours. Pseudotype (GFP-tagged) HIV was then added to the culture via spinoculation and incubated for 3 days. Cells were then washed and stained with Zombie Red viability stain. Infectivity was quantified using flow cytometry.

In the next data set the test system is CYP enzymes. Nature of the data set: Cytochrome P450 activity in human liver microsomes. The settings on record: 1 mM, 2.0 mg/mL pooled mixed gender human liver microsomes. As to the method:
(§3) Reaction mixtures containing phosphate buffer (100 mM, pH 7.4), mixed pooled gender human liver microsomes (2.0 mg/mL), NADP+ (1 mM), glucose-6-phosphate (5 mM), and glucose-6-phosphate dehydrogenase (1.5 Unit/mL) were pre-incubated at 37° C. for 5 minutes. The reactions were then initiated via the addition of emtricitabine or compound 13 (1 mM). After incubation at 37° C., aliquots were taken at each time point and quenched in two volumes of ice-cold methanol. The quenched aliquots were then centrifuged at 14000 rpm for 4 minutes. The supernatant was then diluted into phosphate buffer (100 mM, pH 7.4) to yield samples with concentrations suitable for analysis. The samples were analyzed by HPLC with UV detection using the following method (0% to 100% acetonitrile in Et3NHOAc (50 mM, pH 8) gradient) over 10 minutes at a flow rate of 3 mL min^−1, held at 100% acetonitrile for 3 minutes, ramped down to 5% acetonitrile over 0.2 minutes and then held for 2.8 minutes.

In a further data set the test system is UGT enzymes. Nature of the data set: UGT activity in human liver S9. The settings on record: 1 mM, human liver S9 2.0 mg/mL, UDPGA 8 mM. On the procedure: as §3, with “S9” for “microsomes”, “MgCl2 (10” for “NADP+ (1”, “UDPGA (8” for “glucose-6-phosphate (5”, “D-saccharic acid-1,4-lactone (2 mM)” for “glucose-6-phosphate dehydrogenase (1.5 Unit/mL)”, “by” for “via”

Each structure is given as a SMILES string.

Consider `CCCCOC(=O)Nc1nc(=O)n([C@@H]2CS[C@H](COC(=O)OCCCC)O2)cc1F` [Compound 4, butyl (1-((2R,5S)-2-(((butoxycarbonyl)oxy)methyl)-1,3-oxathiolan-5-yl)-5-fluoro-2-oxo-1,2-dihydropyrimidin-4-yl)carbamate], for which the half-life at 0.5 mM worked out at 5.8 min in data set [1], 59.2 min in [2], 4.6 min in data set [3] and 10.3 min in [4].
`CCCCCOC(=O)Nc1nc(=O)n([C@@H]2CS[C@H](COC(=O)OCCCCC)O2)cc1F` [Compound 5, pentyl (5-fluoro-2-oxo-1-((2R,5S)-2-((((pentyloxy)carbonyl)oxy)methyl)-1,3-oxathiolan-5-yl)-1,2-dihydropyrimidin-4-yl)carbamate]: in [5], the Michaelis constant (Km) turned out to be 600 µM, the “Intrinsic Clearance” value turned out to be 26.33 µL/min/mg and the Vmax was 948 nmol/h/mg.
As for `CCCCCCCCOC(=O)Nc1nc(=O)n([C@@H]2CS[C@H](COC(=O)OCCCCCCCC)O2)cc1F` [Compound 8, octyl (5-fluoro-1-((2R,5S)-2-((((octyloxy)carbonyl)oxy)methyl)-1,3-oxathiolan-5-yl)-2-oxo-1,2-dihydropyrimidin-4-yl)carbamate], the half-life at 0.5 mM stood at 16.7 min in [1], 578 min in data set [2], 33.3 min in data set [3] and 151 min in data set [4].
For the molecule `CCCCCOC(=O)Nc1nc(=O)n([C@@H]2CS[C@H](COC(C)=O)O2)cc1F` [Compound 17, ((2R,5S)-5-(5-fluoro-2-oxo-4-(((pentyloxy)carbonyl)amino)pyrimidin-1 (2H)-yl)-1,3-oxathiolan-2-yl)methyl acetate], in data set [5], the Km was 1310 µM, the “Intrinsic Clearance” value came to 62.05 µL/min/mg and the maximum rate (Vmax) is listed as 4877 nmol/h/mg.
Consider `CCCCCCCCOC(=O)Nc1nc(=O)n([C@@H]2CS[C@H](COC(C)=O)O2)cc1F` [Compound 20, ((2R,5S)-5-(5-fluoro-4-(((octyloxy)carbonyl)amino)-2-oxopyrimidin-1 (2H)-yl)-1,3-oxathiolan-2-yl)methyl acetate], for which, in data set [5], the “half-lives in human liver S9” value is “comparable half-lives”.
On the same count and under the same terms, the value for `CCCCCCCCOC(=O)Nc1nc(=O)n([C@@H]2CS[C@H](COC(=O)C(C)C)O2)cc1F` [Compound 21, ((2R,5S)-5-(5-fluoro-4-(((octyloxy)carbonyl)amino)-2-oxopyrimidin-1 (2H)-yl)-1,3-oxathiolan-2-yl)methyl isobutyrate] was “comparable half-lives”.
As to `CC(=O)Oc1cc(C)cc(C)c1C(C)(C)CC(=O)Nc1ncnc2c1ncn2C[C@@H](C)OCP(=O)(N[C@@H](C)C(=O)OC(C)C)Oc1ccccc1` (stereo partly drawn) [Compound 26, (2S)-isopropyl (((((R)-1-(6-(3-(2-acetoxy-4,6-dimethylphenyl)-3-methylbutanamido)-9H-purin-9-yl)propan-2-yl)oxy)methyl)(phenoxy)phosphoryl)-L-alaninate], the half-life at 1 mM in data set [6] was 66 min.
Regarding `Nc1nc(=O)n([C@@H]2CS[C@H](CO)O2)cc1F` [Emtricitabine, emtricitabine], the “toxicity on CD4+ T cells (viability staining)” value in the data set with CD4+ T cells is “little to no toxicity”. In addition, in the data set with CYP enzymes, the “metabolism by CYP enzymes” value was “not metabolized”. Also, in the data set on UGT enzymes, the “metabolism by UGT enzymes” value is “not metabolized”.

By Km is commonly meant the concentration of substrate that gives half-maximal velocity. As a reminder, the Vmax is the top rate of the reaction or transport when substrate is in excess.
